Laboratory results published in US11696917B2, “Agent enhancing antitumor effect using pyrazolo[3,4-d]pyrimidine compound” (TAIHO PHARMACEUTICAL CO., LTD., priority 2017, dated 2023).

What was measured:
[1] = system: human stomach cancer cell line NCI-N87; assay: Combination of Compound 1 and capecitabine (in vivo), subcutaneous tumor in nude mice; set-up: species or system nude mouse (BALB/cAJcl-nu/nu); settings: for T/C (%): Day 15
Procedure: A human stomach cancer cell line NCI-N87 was obtained from American Type Culture Collection (ATCC). The cell line was cultured at 37° C. in a 5% CO2 incubator using RPMI-1640 (containing 4.5 g/L glucose, 10 mM HEPES, and 1 mM sodium pyruvate) (Wako Pure Chemical Industries, Ltd.) medium containing 10% fetal bovine serum (FBS).
The NCI-N87 cells were resuspended at a concentration of 8×10^7 cells/mL in PBS.
The cell suspension was subcutaneously transplanted in an amount of 8×10^6 cells/0.1 mL to the right chest of a 6-week-old nude mouse (BALB/cAJcl-nu/nu, CLEA Japan, Inc.) using a 1 mL syringe for tuberculin and a 25 G injection needle.
Electronic calipers were used in tumor size measurement.

[2] = molecular target: purified recombinant human HER2 protein (Homo sapiens (Human), UniProt P04626); assay: Measurement of inhibitory effect on HER2-phosphorylating activity (in vitro); assay type: biochemical; settings: ATP 6 μM, 25° C., 40 minutes
Chain of purified recombinant human HER2 protein (P04626 23-1255): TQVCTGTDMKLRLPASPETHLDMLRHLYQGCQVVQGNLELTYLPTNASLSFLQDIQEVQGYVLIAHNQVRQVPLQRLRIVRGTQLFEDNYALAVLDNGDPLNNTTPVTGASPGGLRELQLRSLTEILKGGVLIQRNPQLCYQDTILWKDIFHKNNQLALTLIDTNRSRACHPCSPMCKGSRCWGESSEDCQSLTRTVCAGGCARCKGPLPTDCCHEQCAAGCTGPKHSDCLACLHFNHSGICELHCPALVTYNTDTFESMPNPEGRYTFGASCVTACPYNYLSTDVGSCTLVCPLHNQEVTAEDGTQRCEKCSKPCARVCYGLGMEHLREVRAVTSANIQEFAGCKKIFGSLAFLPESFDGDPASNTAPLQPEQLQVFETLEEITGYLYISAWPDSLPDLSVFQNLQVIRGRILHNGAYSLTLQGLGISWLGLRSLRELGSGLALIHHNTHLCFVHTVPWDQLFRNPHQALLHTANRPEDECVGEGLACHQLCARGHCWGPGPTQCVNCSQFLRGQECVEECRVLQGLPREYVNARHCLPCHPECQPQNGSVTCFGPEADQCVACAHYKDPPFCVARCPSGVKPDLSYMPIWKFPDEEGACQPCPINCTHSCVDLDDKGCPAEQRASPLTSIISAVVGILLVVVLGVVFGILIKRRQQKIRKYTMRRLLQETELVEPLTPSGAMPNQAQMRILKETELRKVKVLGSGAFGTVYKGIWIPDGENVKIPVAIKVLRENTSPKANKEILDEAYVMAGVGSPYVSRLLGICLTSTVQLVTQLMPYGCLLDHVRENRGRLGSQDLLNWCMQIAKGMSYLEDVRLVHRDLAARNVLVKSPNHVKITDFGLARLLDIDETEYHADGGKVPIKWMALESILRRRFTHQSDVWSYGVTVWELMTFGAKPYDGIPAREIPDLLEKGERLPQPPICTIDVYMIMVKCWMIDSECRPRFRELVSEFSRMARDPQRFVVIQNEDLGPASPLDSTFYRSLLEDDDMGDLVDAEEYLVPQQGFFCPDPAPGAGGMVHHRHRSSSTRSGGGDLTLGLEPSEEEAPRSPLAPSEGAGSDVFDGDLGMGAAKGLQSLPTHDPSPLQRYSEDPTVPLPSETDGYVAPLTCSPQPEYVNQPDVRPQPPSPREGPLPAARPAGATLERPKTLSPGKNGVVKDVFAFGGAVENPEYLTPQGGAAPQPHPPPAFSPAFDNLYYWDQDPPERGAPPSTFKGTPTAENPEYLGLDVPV
Excerpt: The purified recombinant human HER2 protein used in the test was purchased from Carna Biosciences, Inc.
For the inhibitory activity measurement of each compound, the synthesis example compound was first serially diluted with dimethyl sulfoxide (DMSO).

[3] = system: EGFR-overexpressing highly activated human epithelioid cancer cell line A431 cells; assay: Cytostatic activity against EGFR-expressing cell line (A431), CellTiter-Glo; assay type: cell-based; settings: 3-day culture; read-out: A431 cell growth inhibitory activity IC50 value
Excerpt: (§1) HER2-overexpressing human stomach cancer cell line NCI-N87 cells were suspended in RPMI1640 medium (manufactured by Life Technologies Corp.) containing 10% fetal bovine serum. Meanwhile, EGFR-overexpressing highly activated human epithelioid cancer cell line A431 cells were suspended in DMEM, high glucose medium (manufactured by Life Technologies Corp.) containing 10% fetal bovine serum. Subsequently, each cell suspension was inoculated to each well of a 384-well flat-bottom microplate and cultured at 37° C. for 1 day in an incubator containing 5% carbon dioxide. The synthesis example compound was dissolved in DMSO, and the test compound was diluted into a concentration of 500 times the final concentration using DMSO. The solution of the test compound in DMSO was diluted with the medium used in the suspension of each cell line, and this solution was added at a final concentration of DMSO of 0.2% to each well of the cell culture plate, followed by further culture at 37° C. for 3 days in an incubator containing 5% carbon dioxide.
(§2) Rate of growth inhibition (%)=(C−T)/(C)×100 T: Luminescence intensity of a well supplemented with the test compound C: Luminescence intensity of a well not supplemented with the test compound

[4] = system: HER2-overexpressing human breast cancer cell line SK-BR-3 cells; assay: Cytostatic activity against HER2-expressing cell line (SK-BR-3), CellTiter-Glo; assay type: cell-based; settings: 3-day culture; read-out: SK-BR-3 cell growth inhibitory activity IC50 value
Procedure: as §2
as §1, with “breast” for “stomach”, “SK-BR-3” for “NCI-N87”, “McCoy's 5a” for “RPMI1640”, “The” for “Meanwhile, EGFR-overexpressing highly activated human epithelioid cancer cell line A431 cells were suspended in DMEM, high glucose medium (manufactured by Life Technologies Corp.) containing 10% fetal bovine serum. Subsequently, each”, “into” for “into a concentration of”, “times as high concentration as” for “times”

[5] = system: HER2-overexpressing human stomach cancer cell line NCI-N87 cells; assay: Cytostatic activity against HER2-expressing cell line (NCI-N87), CellTiter-Glo; assay type: cell-based; settings: 3-day culture; read-out: NCI-N87 cell growth inhibitory activity IC50 value
Excerpt: as §1

[6] = Capecitabine 359 mg/kg/day p.o. Days 1-14
[7] = Capecitabine 809 mg/kg/day p.o. Days 1-14

Row | Compound | BWC (%) Day 15 Mean [1, 6] | RTV Day 15 Mean ± SD [1, 6] | T/C (%) [1, 6] | BWC (%) Day 15 Mean [1, 7] | RTV Day 15 Mean ± SD [1, 7] | T/C (%) [1, 7] | RTV on Day 15 compared with the control group (in words) ([1]; Dunnett's test) | IC50 [2] | IC50 [3] | IC50 [4] | IC50 [5]
1 | CCCCCOC(=O)Nc1nc(=O)n([C@@H]2O[C@H](C)[C@@H](O)[C@H]2O)cc1F [Capecitabine, capecitabine] | 7.51% | 1.26 ± 0.21 | 30.4% | −5.30% | 1.12 ± 0.18 | 27.1% | significantly lower |  |  |  | 
2 | C=CC(=O)N1CCC[C@@H](n2nc(C(=O)Nc3ccc(CC(=O)N(C)C)c(F)c3OC)c3c(N)ncnc32)C1 [compound 14] |  |  |  |  |  |  |  | 4.6 nM | 486 nM | 10 nM | 4 nM
3 | C=CC(=O)N1CCC[C@@H](n2nc(C(=O)Nc3ccc(CC(=O)N(C)C)cc3Cl)c3c(N)ncnc32)C1 [compound 6] |  |  |  |  |  |  |  | 4 nM | 1290 nM | 14 nM | 7 nM
4 | C=CC(=O)N1CCC[C@@H](n2nc(C(=O)Nc3ccc(CC(=O)N(C)C)cc3OC)c3c(N)ncnc32)C1 [compound 7] |  |  |  |  |  |  |  | 7.1 nM | 2800 nM | 31 nM | 12 nM
5 | C=CC(=O)N1CCC[C@@H](n2nc(C(=O)Nc3cc(Br)c(CC(=O)N(C)C)cc3C)c3c(N)ncnc32)C1 [compound 1] |  |  |  |  |  |  |  | 10 nM | 2320 nM | 20 nM | 19 nM
6 | C=CC(=O)N1CCC[C@@H](n2nc(C(=O)Nc3ccc(CC(=O)N(C)C)cc3OC(F)F)c3c(N)ncnc32)C1 [compound 15] |  |  |  |  |  |  |  | 8.6 nM | 2270 nM | 30 nM | 20 nM
7 | C=CC(=O)N1CCC[C@@H](n2nc(C(=O)Nc3ccc(CC(=O)N(C)C)cc3OCF)c3c(N)ncnc32)C1 [compound 16] |  |  |  |  |  |  |  | 10 nM | 3460 nM | 40 nM | 27 nM
8 | C=CC(=O)N1CCC[C@@H](n2nc(C(=O)Nc3ccc(CC(=O)N(C)C)c(C)c3Cl)c3c(N)ncnc32)C1 [compound 3] |  |  |  |  |  |  |  | 7.1 nM | 3370 nM | 9 nM | 27 nM
9 | C=CC(=O)N1CCC[C@@H](n2nc(C(=O)Nc3cc(Cl)c(CC(=O)N(C)C)cc3C)c3c(N)ncnc32)C1 [compound 19] |  |  |  |  |  |  |  | 10 nM | 1260 nM | 24 nM | 12 nM
